Test results taken from ChEMBL document CHEMBL5291721, “A preclinical secondary pharmacology resource illuminates target-adverse drug reaction associations of marketed drugs” (Nat Commun, 2023).
Each block holds one compound with its values, some of them ahead of it.

Assays:
[1] = target: T1, Progesterone receptor (Homo sapiens, UniProt P06401)
T1 sequence (P06401 whole entry): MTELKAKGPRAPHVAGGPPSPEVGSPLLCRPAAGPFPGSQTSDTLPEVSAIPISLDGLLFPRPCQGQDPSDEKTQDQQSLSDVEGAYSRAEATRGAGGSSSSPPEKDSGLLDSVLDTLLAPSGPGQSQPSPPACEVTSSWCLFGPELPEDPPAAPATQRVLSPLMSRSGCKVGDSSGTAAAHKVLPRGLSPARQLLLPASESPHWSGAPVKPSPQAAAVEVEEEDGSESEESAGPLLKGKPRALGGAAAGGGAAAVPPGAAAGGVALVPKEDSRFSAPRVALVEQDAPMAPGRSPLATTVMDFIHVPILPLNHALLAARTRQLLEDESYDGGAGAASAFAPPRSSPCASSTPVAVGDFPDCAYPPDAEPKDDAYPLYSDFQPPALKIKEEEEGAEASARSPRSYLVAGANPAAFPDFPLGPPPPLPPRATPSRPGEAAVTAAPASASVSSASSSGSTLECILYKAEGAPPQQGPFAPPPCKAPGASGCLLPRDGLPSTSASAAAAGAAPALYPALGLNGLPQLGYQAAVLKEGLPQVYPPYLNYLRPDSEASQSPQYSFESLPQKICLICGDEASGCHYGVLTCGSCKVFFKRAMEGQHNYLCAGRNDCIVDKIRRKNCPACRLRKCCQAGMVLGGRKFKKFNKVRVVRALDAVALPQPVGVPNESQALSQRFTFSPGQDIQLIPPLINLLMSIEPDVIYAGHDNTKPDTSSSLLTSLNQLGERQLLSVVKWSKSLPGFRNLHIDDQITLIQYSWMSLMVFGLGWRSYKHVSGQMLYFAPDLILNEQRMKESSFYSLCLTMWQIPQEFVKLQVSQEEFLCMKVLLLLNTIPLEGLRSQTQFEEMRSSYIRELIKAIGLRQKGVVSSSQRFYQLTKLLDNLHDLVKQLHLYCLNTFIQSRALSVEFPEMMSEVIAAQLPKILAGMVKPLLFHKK

[2] = target: D(1A) dopamine receptor (Homo sapiens, UniProt P21728)
D(1A) dopamine receptor, sequence (P21728 whole entry): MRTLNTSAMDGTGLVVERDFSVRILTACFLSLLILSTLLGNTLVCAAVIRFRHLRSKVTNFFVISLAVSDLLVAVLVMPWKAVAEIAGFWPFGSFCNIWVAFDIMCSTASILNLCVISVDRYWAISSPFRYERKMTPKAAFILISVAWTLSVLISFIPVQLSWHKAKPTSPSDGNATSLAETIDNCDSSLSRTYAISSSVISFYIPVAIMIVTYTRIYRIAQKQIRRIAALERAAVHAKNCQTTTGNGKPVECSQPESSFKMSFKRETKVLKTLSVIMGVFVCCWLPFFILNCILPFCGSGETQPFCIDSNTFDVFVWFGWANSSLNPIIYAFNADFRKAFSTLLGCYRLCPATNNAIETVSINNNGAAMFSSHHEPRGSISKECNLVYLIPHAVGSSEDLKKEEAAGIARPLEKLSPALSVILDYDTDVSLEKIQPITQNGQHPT

[3] = target: T2, B1 bradykinin receptor (Homo sapiens, UniProt P46663)
T2 sequence (P46663 whole entry): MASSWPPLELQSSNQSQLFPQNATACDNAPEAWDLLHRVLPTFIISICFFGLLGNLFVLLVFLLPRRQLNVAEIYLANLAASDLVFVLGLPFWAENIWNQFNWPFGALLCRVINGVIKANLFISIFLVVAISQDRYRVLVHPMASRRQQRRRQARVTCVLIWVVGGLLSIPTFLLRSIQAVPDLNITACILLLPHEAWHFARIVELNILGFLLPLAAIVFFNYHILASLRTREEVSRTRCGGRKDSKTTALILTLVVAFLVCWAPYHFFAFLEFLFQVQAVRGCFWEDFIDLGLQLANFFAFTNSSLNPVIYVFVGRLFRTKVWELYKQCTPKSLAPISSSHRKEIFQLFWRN

[4] = target: T3, Androgen receptor (Rattus norvegicus, UniProt P15207); type: functional
T3 sequence (P15207 whole entry): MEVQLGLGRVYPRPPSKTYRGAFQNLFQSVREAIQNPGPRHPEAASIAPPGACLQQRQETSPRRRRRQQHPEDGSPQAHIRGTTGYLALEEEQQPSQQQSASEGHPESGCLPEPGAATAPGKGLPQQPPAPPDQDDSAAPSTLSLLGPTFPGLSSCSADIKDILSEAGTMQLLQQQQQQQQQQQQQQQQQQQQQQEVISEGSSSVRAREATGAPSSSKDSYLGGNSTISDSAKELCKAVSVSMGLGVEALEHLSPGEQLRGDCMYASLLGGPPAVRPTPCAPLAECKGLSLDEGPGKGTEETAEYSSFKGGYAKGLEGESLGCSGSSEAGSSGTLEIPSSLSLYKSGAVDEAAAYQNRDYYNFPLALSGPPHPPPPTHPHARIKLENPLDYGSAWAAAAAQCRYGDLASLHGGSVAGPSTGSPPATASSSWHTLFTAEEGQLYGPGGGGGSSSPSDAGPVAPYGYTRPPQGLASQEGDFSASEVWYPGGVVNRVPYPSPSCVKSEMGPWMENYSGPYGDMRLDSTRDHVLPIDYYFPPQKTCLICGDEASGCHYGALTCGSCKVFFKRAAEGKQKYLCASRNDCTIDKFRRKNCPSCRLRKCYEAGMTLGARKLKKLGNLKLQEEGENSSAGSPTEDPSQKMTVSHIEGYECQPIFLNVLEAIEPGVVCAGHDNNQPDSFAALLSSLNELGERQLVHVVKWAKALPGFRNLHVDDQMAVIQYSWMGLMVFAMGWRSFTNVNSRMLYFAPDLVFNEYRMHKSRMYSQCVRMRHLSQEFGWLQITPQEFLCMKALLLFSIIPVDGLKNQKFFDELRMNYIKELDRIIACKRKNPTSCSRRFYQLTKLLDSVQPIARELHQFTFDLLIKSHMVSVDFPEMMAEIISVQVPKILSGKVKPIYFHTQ

[5] = target: T4, Glucocorticoid receptor (Homo sapiens, UniProt P04150); type: functional
T4 sequence (P04150 whole entry): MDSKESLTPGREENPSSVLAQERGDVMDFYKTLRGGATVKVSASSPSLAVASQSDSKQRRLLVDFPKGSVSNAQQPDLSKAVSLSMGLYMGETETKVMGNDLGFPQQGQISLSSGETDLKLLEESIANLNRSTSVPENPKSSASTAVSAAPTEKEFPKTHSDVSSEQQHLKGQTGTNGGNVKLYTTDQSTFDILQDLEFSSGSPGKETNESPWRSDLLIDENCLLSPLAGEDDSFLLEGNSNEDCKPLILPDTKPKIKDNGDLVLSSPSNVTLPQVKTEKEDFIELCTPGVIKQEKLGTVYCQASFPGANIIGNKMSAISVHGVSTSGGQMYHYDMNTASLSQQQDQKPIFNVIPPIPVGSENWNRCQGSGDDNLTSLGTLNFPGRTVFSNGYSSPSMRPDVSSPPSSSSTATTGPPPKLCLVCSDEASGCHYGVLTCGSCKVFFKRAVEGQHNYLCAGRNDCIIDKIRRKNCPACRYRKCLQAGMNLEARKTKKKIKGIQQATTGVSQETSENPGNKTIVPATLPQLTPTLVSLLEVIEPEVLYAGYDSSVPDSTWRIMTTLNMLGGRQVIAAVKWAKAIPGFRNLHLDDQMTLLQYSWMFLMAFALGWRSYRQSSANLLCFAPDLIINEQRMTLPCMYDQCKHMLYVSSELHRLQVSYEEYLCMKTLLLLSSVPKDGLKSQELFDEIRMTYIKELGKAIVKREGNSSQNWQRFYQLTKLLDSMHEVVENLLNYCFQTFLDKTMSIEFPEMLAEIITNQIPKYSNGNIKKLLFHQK
Further: assay procedure not described here.

SMILES: N=C(N)NC(=O)c1nc(Cl)c(N)nc1N [AMILORIDE]
AC50 [1]: > 30 µM
AC50 [2]: > 10 µM
AC50 [3]: > 10 µM

SMILES: COc1cccc2c1C(=O)c1c(O)c3c(c(O)c1C2=O)C[C@@](O)(C(=O)CO)C[C@@H]3O[C@H]1C[C@H](N)[C@H](O)[C@H](C)O1 [DOXORUBICIN]
AC50 [1]: 1.7 µM
AC50 [5]: 11 µM

SMILES: C[C@]12C=CC(=O)C=C1CC[C@@H]1[C@@H]2[C@@H](O)C[C@@]2(C)[C@H]1CC[C@]2(O)C(=O)CO [PREDNISOLONE]
AC50 [3]: > 30 µM

SMILES: Cc1ccc(O)c([C@H](CCN(C(C)C)C(C)C)c2ccccc2)c1 [TOLTERODINE]
AC50 [2]: > 10 µM

SMILES: CC1(C)O[C@@H]2C[C@H]3[C@@H]4CCC5=CC(=O)C=C[C@]5(C)[C@@]4(F)[C@@H](O)C[C@]3(C)[C@]2(C(=O)CO)O1 [TRIAMCINOLONE ACETONIDE]
AC50 [5]: 0.0039 µM

The remaining lines, values ahead:

AC50 [4]: > 30 µM
SMILES: C[C@]12C=CC(=O)C=C1C(Cl)=C[C@@H]1[C@@H]2[C@@H](O)C[C@@]2(C)[C@H]1CC[C@]2(O)C(=O)CO [CLOPREDNOL]

AC50 [4]: > 30 µM
SMILES: CC(C)(Oc1ccc(Cl)cc1)C(=O)OCCOC(=O)c1cccnc1 [ETOFIBRATE]
